Data published in patent publication US9193718B2, “Quinazoline derivative and application thereof” (FUJIAN INSTITUTE OF RESEARCH ON THE STRUCTURE OF MATTER, …, priority 2012, dated 2015).

Target: T1, Tyrosine kinase (EGFR) (Homo sapiens, UniProt P00533)
T1 construct: made in house
Assay: EGFR tyrosine kinase inhibition by Enzyme-Linked Immunosorbent assay
Assay type: biochemical
Settings: compound at a concentration of 100 μM; ATP 5 μM; substrate poly(Glu,Tyr)4:1
Description: Tyrosine kinase (EGFR) was expressed using a baculovirus expression system, and purified by using a Ni-NTA affinity chromatography. After tested, it was consistent with experimental standard. Poly(Glu,Tyr)4:1 (Sigma), Monoclonal Anti-Phosphotyrosine antibody PY99 (Santa Cruz), horseradish peroxidase-labeled goat anti-mouse IgG (Calbiochem), ATP, DTT, OPD (Amresco), microplates (Corning). Other reagents were all commercially available with analytical grade purity, which were not treated before use if no special instructions present. Isopropanol was dried with molecular sieves before use.
Quinazoline compounds represented by formula (I) and their pharmaceutically acceptable salts according to the present invention are used as EGFR inhibitors. The activity of the particularized compounds for inhibiting EGFR was determined by Enzyme-Linked Immunosorbent assay.
Detailed experimental procedure is as follows:
(1) Kinase reaction substrate poly(Glu,Tyr)4:1 was diluted to 20 μg/mL with potassium-free PBS, and the microplates were coated. After the reaction was for 12-16 h at 37° C., the liquid in the wells was removed.
(2) The plates were washed with T-PBS for three times, 10 min each time.
(3) The microplates were dried in an oven at 37.
(4) The samples to be tested were added into the wells of the coated microplates (wherein the samples to be tested were formulated to a 1×10^−2M stock solution with DMSO, and diluted to the desired concentration with reaction buffer before use. The resulted solution was added into the wells and then allowed to achieve the corresponding final concentration in 100 μL reaction system.
(5) the addition of ATP and tested tyrosine kinases
ATP solution diluted with reaction buffer (the final concentration of ATP is 5 μM) and the tested tyrosine kinases solution diluted with reaction buffer were added. The total volume of the reaction is 100 μL. Meanwhile the negative control wells and the control wells without enzyme were set up.
(6) The reaction system was placed in a wet box, and shaked for 1 hour at 37° C. shielding from light. After the reaction was complete, the plates were washed with T-PBS for three times.
(7) Antibody PY99 was added into each well (100 μL/well); and the plates were shaked for 30 min at 37° C. After the reaction was complete, the plates were washed with T-PBS for three times.
(8) 100 μL horseradish peroxidase-labeled goat anti-mouse IgG was added into each well, and the plates were shaked for 30 min at 37° C. The plates were washed with T-PBS for three times.
(9) 100 μL OPD developing liquid was added in each well, and was reacted for 1-10 min at room temperature shielding from light.
(10) 2M H2SO4 was added into each well to terminate the reaction. A490 value was determined using wavelength-tunable microplate reader. The inhibition ratio can be calculated by the following formula: […]
According to the above-described activity test method, the activity of inhibiting EGFR enzyme of the compounds represented by formula (I) or salts thereof were calculated.

Compound	EGFR inhibition rate (%)
c1ccc(-c2cc(COc3ncnc4ccccc34)on2)cc1 [Compound Q-1, 4-((3-phenyl-isoxazol-5-yl)-methoxy-)-quinazoline]	18.0
COc1ccc(-c2cc(COc3ncnc4ccccc34)on2)cc1 [Compound Q-3]	7.3
Clc1ccccc1-c1cc(COc2ncnc3ccccc23)on1 [Compound Q-4]	25.8
Clc1ccc(-c2cc(COc3ncnc4ccccc34)on2)cc1 [Compound Q-5]	16.7
Clc1ccc(-c2cc(COc3ncnc4ccccc34)on2)c(Cl)c1 [Compound Q-6]	22.7
Brc1ccc(-c2cc(COc3ncnc4ccccc34)on2)cc1 [Compound Q-7]	15.7
COc1cc2ncnc(OCc3cc(-c4ccccc4)no3)c2cc1OC [Compound Q-15, 6,7-dimethoxy-4-((3-phenyl-isoxazol-5-yl)-methoxy-)-quinazoline]	30.7
COc1ccc(-c2cc(COc3ncnc4cc(OC)c(OC)cc34)on2)cc1 [Compound Q-17]	47.0
COc1cc2ncnc(OCc3cc(-c4ccccc4Cl)no3)c2cc1OC [Compound Q-18]	1.2
COc1cc2ncnc(OCc3cc(-c4ccc(Cl)cc4)no3)c2cc1OC [Compound Q-19]	14.5
COc1cc2ncnc(OCc3cc(-c4ccc(Cl)cc4Cl)no3)c2cc1OC [Compound Q-20]	29.8
COc1cc2ncnc(OCc3cc(-c4ccc(Br)cc4)no3)c2cc1OC [Compound Q-21]	30.9
COCCOc1cc2ncnc(OCc3cc(-c4ccccc4)no3)c2cc1OCCOC [Compound Q-29, (6,7-bis(2-methoxyethoxy))-4-((3-phenyl-isoxazol-5-yl)-methoxy-)-quinazoline]	27.7
COCCOc1cc2ncnc(OCc3cc(-c4ccc(C)cc4)no3)c2cc1OCCOC [Compound Q-30, (6,7-bis(2-methoxyethoxy))-4-((3-(4-methylphenyl)-isoxazol-5-yl)-methoxy-)-quinazoline]	20.4
COCCOc1cc2ncnc(OCc3cc(-c4ccc(OC)cc4)no3)c2cc1OCCOC [Compound Q-31]	38.2
COCCOc1cc2ncnc(OCc3cc(-c4ccccc4Cl)no3)c2cc1OCCOC [Compound Q-32]	11.8
COCCOc1cc2ncnc(OCc3cc(-c4ccc(Cl)cc4Cl)no3)c2cc1OCCOC [Compound Q-34, (6,7-bis(2-methoxyethoxy))-4-((3-(2,4-dichlorophenyl)-isoxazol-5-yl)-methoxy-)-quinazoline]	7.8
COCCOc1cc2ncnc(OCc3cc(-c4ccc(Br)cc4)no3)c2cc1OCCOC [Compound Q-35]	6.4
(6,7-bis(2-methoxyethoxy))-4-((3-(4-chlorophenyl)-isoxazol-5-yl))-methoxy-)-quinazoline [Compound Q-33]	14.1
